Data as given in PubChem BioAssay (NCI).
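Each compound was tested at five concentrations against cells in 96-well plates for 48 hours. GI50 is the concentration that inhibits growth by half. TGI is the concentration that stops growth completely.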

Key:
Assay in all cases: inhibition of tumour cell growth, NCI panel, 48 h
MDA-MB-231 breast = tested on: MDA-MB-231 breast
SK-MEL-5 melanoma = tested on: SK-MEL-5 melanoma
U251 CNS = tested on: U251 CNS
NCI-H460 lung = tested on: NCI-H460 lung
786-0 renal = tested on: 786-0 renal
NCI/ADR-RES ovarian = tested on: NCI/ADR-RES ovarian
HOP-62 NSCLC = tested on: HOP-62 NSCLC
NCI-H226 lung = tested on: NCI-H226 lung
K-562 leukemia = tested on: K-562 leukemia
HOP-92 NSCLC = tested on: HOP-92 NSCLC

SMILES | GI50 (MDA-MB-231 breast) | TGI (MDA-MB-231 breast) | GI50 (SK-MEL-5 melanoma) | TGI (SK-MEL-5 melanoma) | GI50 (U251 CNS) | TGI (U251 CNS) | GI50 (NCI-H460 lung) | TGI (NCI-H460 lung) | GI50 (786-0 renal) | TGI (786-0 renal) | GI50 (NCI/ADR-RES ovarian) | TGI (NCI/ADR-RES ovarian) | GI50 (HOP-62 NSCLC) | TGI (HOP-62 NSCLC) | GI50 (NCI-H226 lung) | TGI (NCI-H226 lung) | GI50 (K-562 leukemia) | TGI (K-562 leukemia) | GI50 (HOP-92 NSCLC) | TGI (HOP-92 NSCLC)
CCCCc1cc(O)ccc1O | 15.1 µM | > 100 µM | 58.3 µM | > 100 µM | 37.4 µM | > 100 µM | 39 µM | > 100 µM | 12.2 µM | > 100 µM | 23.2 µM | > 100 µM | 53.7 µM | > 100 µM | 48.8 µM | > 100 µM | 10.3 µM | > 100 µM | 26.1 µM | > 100 µM
Cc1cc(O)cc(C)c1/C=C/c1cncc(C(=O)N(C)C)c1 | > 25 µM | > 25 µM | > 25 µM | > 25 µM | > 25 µM | > 25 µM | > 25 µM | > 25 µM | > 25 µM | > 25 µM | > 25 µM | > 25 µM | > 25 µM | > 25 µM | > 25 µM | > 25 µM | > 25 µM | > 25 µM | > 25 µM | > 25 µM
C=C1C(=O)O[C@H]2[C@H]1CC/C(COC(=O)c1ccc(C(=O)O)s1)=C\CC[C@@]1(C)O[C@@H]21 | 1.6 µM | 3.06 µM | 3.64 µM | 13.3 µM | 2.61 µM | 8.37 µM | 3.33 µM | 10.8 µM | 1.54 µM | 3.09 µM | 3.4 µM | 26.2 µM | 6.96 µM | 20.2 µM | 12.2 µM | 30.5 µM | 1.47 µM | > 100 µM | 1.61 µM | 3.45 µM
O=C(O)C(Cc1ccc(O)c([N+](=O)[O-])c1)N1C(=O)c2ccccc2C1=O (stereo not drawn) |  | > 100 µM |  | > 100 µM |  | > 100 µM |  | > 100 µM |  | > 100 µM |  | > 100 µM |  | > 100 µM |  | > 100 µM |  | > 100 µM |  | > 100 µM
O=C(N/N=C/c1ccc(F)cc1)c1[nH]c2ccc(I)cc2c1-c1ccccc1 | 1.34 µM | 6.82 µM | 0.417 µM | 2.52 µM | 0.484 µM | > 37.9 µM | 0.399 µM | 5.04 µM | 0.475 µM | 10.7 µM | 0.274 µM | 0.769 µM | 0.577 µM | 13.6 µM | 2.24 µM | > 66.8 µM | 0.325 µM |  | 12.5 µM | > 92.3 µM
Nc1ncnc2c1ncn2C1OC(C(=O)O)C(O)C1O (stereo not drawn) |  | > 100 µM |  | > 100 µM |  | > 100 µM |  | > 100 µM |  | > 100 µM |  | > 100 µM |  | > 100 µM |  | > 100 µM |  | > 100 µM |  | > 100 µM
OC1CCC(C2C3CCCCC3C3CCCCC3C2C2CCC(O)CC2)CC1 (stereo not drawn) |  | 9.66 µM |  | 23.5 µM |  | 14 µM |  | 10.2 µM |  | > 100 µM |  | > 100 µM |  | 47.4 µM |  | > 100 µM |  | > 100 µM |  | 98.9 µM
CCC(=O)N1C/C(=C/c2ccc(OC)cc2)C(=O)/C(=C/c2ccc(OC)cc2)C1 | 1.98 µM | 4.28 µM | 1.62 µM | 3.04 µM | 1.78 µM | 4.08 µM | 2.05 µM | 4.48 µM | 1.87 µM | 3.72 µM | 3.54 µM | > 100 µM | 2.79 µM | 6.45 µM | 22.3 µM | > 100 µM | 1.19 µM | > 100 µM | 2.11 µM | 7.77 µM
C=C(CNCCO)[C@@H]1CC[C@]2(CO)CC[C@]3(C)[C@H](CC[C@@H]4[C@@]5(C)CCC(NCCc6ccc(O)cc6)C(C)(C)[C@@H]5CC[C@]43C)[C@@H]12 (stereo partly drawn) | 0.854 µM | 2.17 µM | 1.69 µM | 3.13 µM | 0.278 µM | 0.717 µM | 1.18 µM | 2.63 µM | 0.202 µM | 0.523 µM | 2.18 µM | 5.1 µM | 1.59 µM | 2.99 µM | 1.69 µM | 3.48 µM |  |  | 0.822 µM | 2.29 µM
O=C1C=C(c2cc(Br)c(O)c(Br)c2)/C(=C/c2cc(Br)c(O)c(Br)c2)O1 | 32 µM | > 75 µM | 29 µM | > 75 µM | 26.4 µM | > 75 µM | 24.1 µM | > 75 µM | 35.8 µM | > 75 µM | 40.3 µM | > 75 µM |  |  | 43.6 µM | > 75 µM | 24 µM | > 75 µM | 15.4 µM | > 75 µM
OC1CCC(Oc2cccc3cnc(Nc4ccc5nc[nH]c5c4)nc23)CC1 (stereo not drawn) | 0.389 µM | 19.8 µM | 0.47 µM | 6.51 µM | 0.428 µM | 15.7 µM | 0.275 µM | 11.8 µM | 0.336 µM | 10.1 µM | 1.6 µM | 13 µM | 0.331 µM | 14.9 µM |  |  | 0.536 µM | 19.3 µM | 0.467 µM | 29.4 µM
